# According to patent US11970473B2, “Nootkatone derivatives and methods of using the same” (Arkansas State University—Jonesboro, priority 2021, dated 2024):
# Read-outs that look alike come from different tables or passages of the source.
# How the values were obtained:
# [1] = tested on: Enterococcus faecium ATCC 700221 (Em21); assay: Minimal inhibitory concentration (MIC) assay; type: cell-based; settings: Enterococcus faecium
# Experimental: (§1) Minimal inhibitory concentration (MIC) assay The standard microdilution method recommended by the Clinical and Laboratory Standards Institute (CLSI) was used to determine the MIC of the antibiotics. The starting concentration of compounds was 50 μg/ml and 2-fold dilution was done down the 96 honeycomb well plate column. The MIC assay was conducted in triplicates.
# [2] = tested on: Enterococcus faecalis ATCC 29212 (Es12); assay: Minimal inhibitory concentration (MIC) assay; type: cell-based
# Experimental: as §1
# [3] = tested on: S. aureus ATCC 33591 (Sa91); assay: Minimal inhibitory concentration (MIC) assay; type: cell-based; settings: Staphylococcus aureus
# Experimental: as §1
# [4] = tested on: S. aureus ATCC 33592 (Sa92); assay: Minimal inhibitory concentration (MIC) assay; type: cell-based; settings: Staphylococcus aureus
# Experimental: as §1
# [5] = tested on: S. aureus BAA-2312 (Sa12); assay: Minimal inhibitory concentration (MIC) assay; type: cell-based; settings: Staphylococcus aureus
# Experimental: as §1
# [6] = tested on: S. aureus ATCC 700699 (Sa99); assay: Minimal inhibitory concentration (MIC) assay; type: cell-based; settings: Staphylococcus aureus
# Experimental: as §1
# [7] = tested on: B. subtilis ATCC 6623 (Bs); assay: Minimal inhibitory concentration (MIC) assay; type: cell-based; settings: Bacillus subtilis
# Experimental: as §1
# [8] = tested on: S. aureus ATCC 25923 (Sa23); assay: Minimal inhibitory concentration (MIC) assay; type: cell-based; settings: Staphylococcus aureus
# Experimental: as §1
# [9] = tested on: treated bacteria (differentially expressed proteins); assay: Quantitative proteomics: protein regulation by Compound 16 versus DMSO control
# [10] = tested on: S. aureus strains; assay: MIC, summary over S. aureus strains; type: cell-based; settings: Staphylococcus aureus; lowest MIC over S. aureus strains; read-out: minimum inhibitory concentration (MIC) value as low as
# Experimental: as §1
# [11] = tested on: MRSA persisters; assay: Persister Cell Killing Assay; settings: for CFU count: after 4 hrs exposure, 128×MIC
# Experimental: A persister cell killing assay was performed following the methodology described by Kim et. al. with some modifications.^28 S. aureus strain was grown to stationary phase in CAMHB medium by shaking at 200 rpm overnight at 35° C. An aliquot of stationary phase culture (1 ml) was washed thrice with 1×PBS by centrifugation. After washing, the cells were diluted to ˜5×10^8 CFU/ml (confirmed by plate count). Diluted persister cells (2 ml) plus antibiotics at the desired concentration were incubated in sterile 10×75 mm plastic culture tubes at 35° C. with shaking at 200 rpm. At specific times, 400 μl aliquots were placed into microcentrifuge tubes and the cells washed and serially diluted in PBS. The diluted sample was plated on TSA agar plate with 5% sheep blood by the 6×6 drop plate method. Plates were incubated for 18-20 hours at 35° C., and then colonies were counted to calculate concentrations in CFU/ml. The experiment was performed in triplicates.
# [12] = tested on: S. aureus ATCC 700699 and S. aureus ATCC 33591; assay: Time-Kill Assay; type: cell-based; settings: 4×MIC
# Experimental: Time kill assay for test antibiotics against S. aureus ATCC 700699 and S. aureus ATCC 33591 strains was conducted using procedures published previously.^26 Briefly, a log-phase bacterial culture was diluted to ˜5×10^6 CFU/ml in warm sterile CAMHB broth and was exposed to antibiotics at 4×MIC concentration then incubated at 35° C. Samples of 20 μl were taken every 2 hours, diluted 10 fold to 10^−5, and the 6×6 drop plate method was performed to determine viable CFU/ml after 18-24 hours of incubation at 35° C. Each antibiotic time-kill assay was conducted in triplicate.
# [13] = tested on: S. epidermidis 700296 (Se); assay: Minimal inhibitory concentration (MIC) assay; type: cell-based; settings: Staphylococcus epidermidis, read-out: Antimicrobial activity (MIC) Se
# Experimental: as §1
smiles,measurement,setting,value
C=C(C)[C@@H]1CC=C2c3sc(-c4ccc(O)c(O)c4)nc3C[C@@H](C)[C@]2(C)C1 [Compound 16],MIC,"[1]; ATCC700221, Enterococcus faecium ATCC 700221, read-out: Antimicrobial activity (MIC) Em21",1.56 µg/mL
same,MIC,"[2]; ATCC29212, Enterococcus faecalis ATCC 29212, read-out: Antimicrobial activity (MIC) Es12",12.5 µg/mL
same,MIC,"[3]; ATCC33591, S. aureus ATCC 33591, antibiotic-resistant strain, read-out: Antimicrobial activity (MIC) Sa91",6.25 µg/mL
same,MIC,"[4]; ATCC33592, S. aureus ATCC 33592, antibiotic-resistant strain, read-out: Antimicrobial activity (MIC) Sa92",3.12 µg/mL
same,MIC,"[5]; BAA2312, S. aureus BAA-2312, antibiotic-resistant strain, read-out: Antimicrobial activity (MIC) Sa12",3.12 µg/mL
same,MIC,"[6]; ATCC700699, S. aureus ATCC 700699, antibiotic-resistant strain, read-out: Antimicrobial activity (MIC) Sa99",3.12 µg/mL
same,MIC,"[7]; ATCC6623, B. subtilis ATCC 6623, read-out: Antimicrobial activity (MIC) Bs",12.5 µg/mL
same,MIC,"[8]; ATCC25923, S. aureus ATCC 25923, antibiotic susceptible strain, read-out: Antimicrobial activity (MIC) Sa23",3.12 µg/mL
same,Log(FC),"[9]; gene SAV0307 (A0A0H3JQ49): Similar to outer membrane protein, ⅛ MIC",1.313
same,Log(FC),"[9]; gene SAV0486: Initiation-control protein YabA, ⅛ MIC",−1.076
same,Log(FC),"[9]; gene SAV0831: Similar to thioredoxin, ⅛ MIC",−1.298
same,Log(FC),"[9]; gene SAV1155 (A0A0H3JUX1): Fibrinogen-binding protein, ⅛ MIC",4.341
same,Log(FC),"[9]; gene SAV1291: Thiamine_BP domain-containing protein, ⅛ MIC",−1.399
same,Log(FC),"[9]; gene SAV1556: ABC transporter MreA, ⅛ MIC",−1.267
same,Log(FC),"[9]; gene SAV1615: UPF0473 protein SAV1615, ⅛ MIC",−1.3145
same,Log(FC),"[9]; gene SAV1617: UPF0297 protein SAV1617, ⅛ MIC",−2.321
same,Log(FC),"[9]; gene SAV1876: Uncharacterized protein, ⅛ MIC",−3.169
same,Log(FC),"[9]; gene SAV1880: UPF0435 protein SAV1880, ⅛ MIC",−1.529
same,Log(FC),"[9]; gene SAV2592: 3-dmu-9_3-mt domain-containing protein, ⅛ MIC",−1.105
same,Log(FC),"[9]; gene acpP: Acyl carrier protein, ⅛ MIC",−1.463
same,Log(FC),"[9]; gene coa (A0A0H3JPA2): Staphylocoagulase, ⅛ MIC",4.524
same,Log(FC),"[9]; gene esxA: Type VII secretion system extracellular protein A, ⅛ MIC",−1.698
same,Log(FC),"[9]; gene ftnA: Bacterial non-heme ferritin, ⅛ MIC",−1.122
same,Log(FC),"[9]; gene gate: Aspartyl/glutamyl-tRNA (Asn/Gln) amidotransferase subunit C, ⅛ MIC",−2.722
same,Log(FC),"[9]; gene hit: Hit-like protein involved in cell-cycle regulation, ⅛ MIC",−1.253
same,Log(FC),"[9]; gene lip1 (P65288): Lipase 1, ⅛ MIC",1.631
same,Log(FC),"[9]; gene mecA (A0A0H3JPA5): Penicillin binding protein 2 prime, ⅛ MIC",1.378
same,Log(FC),"[9]; gene moaD: Molybdopterin synthase sulfur carrier subunit, ⅛ MIC",−1.617
same,Log(FC),"[9]; gene narG: Nitrate reductase (quinone), ⅛ MIC",−1.5746
same,Log(FC),"[9]; gene nasD: Nitrite reductase, ⅛ MIC",−1.201
same,Log(FC),"[9]; gene rsbV: Anti-sigma-B factor antagonist, ⅛ MIC",−1.199
same,Log(FC),"[9]; gene sbi (Q931F4): Immunoglobulin-binding protein Sbi, ⅛ MIC",1.71
same,MIC,[10],3.12 µg/mL
same,ability to kill MRSA persisters,[11],inhibited the growth of persisters significantly
same,CFU count,[11],2×10^7 CFU
same,potency against the persister compared with positive controls,[11]; versus vancomycin and gentamicin,several fold more potent than the positive controls
same,eliminated bacteria at,[12],6 h
same,time kill assay: mode of action,[12],bactericidal
"CN[C@H](CC(C)C)C(=O)N[C@H]1C(=O)N[C@@H](CC(N)=O)C(=O)N[C@H]2C(=O)N[C@H]3C(=O)N[C@H](C(=O)N[C@H](C(=O)O)c4cc(O)cc(O)c4-c4cc3ccc4O)[C@H](O)c3ccc(c(Cl)c3)Oc3cc2cc(c3O[C@@H]2O[C@H](CO)[C@@H](O)[C@H](O)[C@H]2O[C@H]2C[C@](C)(N)[C@H](O)[C@H](C)O2)Oc2ccc(cc2Cl)[C@H]1O [VC, vancomycin, reference compound]",MIC,"[1]; ATCC700221, read-out: Antimicrobial activity (MIC) Em21",> 100 µg/mL
same,MIC,"[2]; Enterococcus faecalis, ATCC29212, read-out: Antimicrobial activity (MIC) Es12",3.12 µg/mL
same,MIC,"[3]; ATCC33591, read-out: Antimicrobial activity (MIC) Sa91",1.56 µg/mL
same,MIC,"[4]; ATCC33592, read-out: Antimicrobial activity (MIC) Sa92",1.56 µg/mL
same,MIC,"[5]; BAA2312, read-out: Antimicrobial activity (MIC) Sa12",0.78 µg/mL
same,MIC,"[6]; ATCC700699, read-out: Antimicrobial activity (MIC) Sa99",0.78 µg/mL
same,MIC,[13],1.56 µg/mL
same,MIC,"[7]; ATCC6623, read-out: Antimicrobial activity (MIC) Bs",0.39 µg/mL
same,MIC,"[8]; ATCC25923, read-out: Antimicrobial activity (MIC) Sa23",3.12 µg/mL
same,CFU count,[11],2.4×10^7 CFU
same,eliminated bacteria at,[12],10 h
